Structures can show the parent of a compound that is named as a salt.
System: not given
Assay: not given
Conditions: not given
`CC1(C)CN2C(CSC3=NCC(C)(C)N3)=CSC2=N1` (as salt: hydrochloride) [Example 2, 3-(((5,5-dimethyl-4,5-dihydro-1H-imidazol-2-yl)thio)methyl)-6,6-dimethyl-5,6-dihydroimidazo[2,1-b]thiazole dihydrochloride] showed a melting point of over 250 °C.
For `CC1(C)CN2C(CSC3=N[C@@H]4CCCC[C@H]4N3)=CSC2=N1` (as salt: hydrochloride) [Example 3, 3-((((3aR,7aR)-3a,4,5,6,7a-hexahydro-1H-benzo[d]imidazol-2-yl)thio)methyl)-6,6-dimethyl-5,6-dihydroimidazo[2,1-b]thiazole dihydrochloride], the melting point was 65 to 75 °C.

System: IFN production by activated PBMCs
Assay: IFN production by R848-activated PBMCs from healthy donors, twINNE reporter cell line
Format: cell-based, human
Conditions: Homo sapiens, PBMC, means of two results over 2 healthy donors, R848 5 μg/mL, IT1t: mean over all experiments, read-out: IC50 of anti-inflammatory activity (IFN production)
Procedure: 2) The blood from healthy donors was also obtained from “Etablissement Français du Sang” (convention #19/EFS/029), Paris, France.
In vitro experiments were performed using human peripheral blood mononuclear cells (PBMCs) isolated by density centrifugation from peripheral blood leukocyte separation medium, lymphoprep (Stemcell Technologies).
PBMCs were cultured in RPMI 1640 (Sigma-Aldrich, MO, USA) containing 10% heat-inactivated fetal bovine serum (Sigma-Aldrich, MO, USA) at 37° C./5% CO2.
2) The PBMCs used herein were prepared as described in part A “immune cells preparation”, section 2) above. PBMCs were seeded at 4.10^6/mL. […] Cells were then stimulated with the TLR7/8 agonist resiquimod—R848 (Sigma-Aldrich, MO, USA) at 5 μg/mL.
2) To quantify the secretion of functional IFN, a biological assay based on a stable cell line where luciferase reporter gene is controlled by five Interferon-Stimulated Response Elements (twINNE cell line) was used. It is important to note that the twINNE cell line is the same as the above mentioned STING-37 cell line but with constitutively expressed nanoluciferase. First, supernatants of R848-stimulated PBMCs (see part B, section 2) above) were harvested after 24 h of stimulation and frozen at −20° C. for storage. Then, supernatants were dispensed in culture wells of a 96-well plate containing 35.103 twINNE cells per well in Dulbecco's Modified Eagle's Medium supplemented with 10% Foetal Bovine Serum, 100 U/mL Penicillin and 100 μg/mL Streptomycin (1% Pen-Strep) and 1 mM glutamine (Sigma-Aldrich, MO, USA) at 37° C./5% […]. After 24 h of culture, luciferase activity was determined by adding 60 μL of Bright-Go reagents (Promega, Wisconsin, USA) to culture wells and measuring bioluminescence with EnSpire Multimode Plate Reader (PerkinElmer, Massachusetts, USA). When stated, for IC50 calculation, dose-response curves fitted using the nonlin fit (variable slope) analysis in GraphPad Prism software (GraphPad Software, California, USA).
Compound `CC1(C)CN=C(SCCCc2cccnc2)N1` [Example 31, 3-(3-((5,5-dimethyl-4,5-dihydro-1H-imidazol-2-yl)thio)propyl)pyridine dihydrochloride] has an IC50 of at least 31 µM.
In the case of `CC1(C)CN=C(SCc2cccnc2)N1` [Example 32, 3-(((5,5-dimethyl-4,5-dihydro-1H-imidazol-2-yl)thio)methyl)pyridine dihydrochloride], the IC50 is reported as at least 31 µM.
`CC1(C)CN=C(SCC2=CSC3=NC4(CC4)CN23)N1` [Example 33, dihydrochloride] gave an IC50 of at least 31 µM.
Work on `CC1(C)CN=C2SC=C(CSC3=NCC(C)(C)N3)N2C1` [Example 34, 3-(((5,5-dimethyl-4,5-dihydro-1H-imidazol-2-yl)thio)methyl)-6,6-dimethyl-6,7-dihydro-5H-thiazolo[3,2-a]pyrimidine dihydrochloride] yielded an IC50 of at least 31 µM.
In the case of `C1=C(CSC2=NCCCN2)N2CCN=C2S1` [Example 35, 3-(((1,4,5,6-tetrahydropyrimidin-2-yl)thio)methyl)-5,6-dihydroimidazo[2,1-b]thiazole dihydrochloride], the IC50 is reported as at least 31 µM.
`C1=C(CSC2=NCCCN2)N2CCCCN=C2S1` [Example 37, 3-(((1,4,5,6-tetrahydropyrimidin-2-yl)thio)methyl)-5,6,7,8-tetrahydrothiazolo[3,2-a][1,3]diazepine dihydrochloride] showed an IC50 of at least 31 µM.
In the case of `CC1(C)CN=C(SCCCn2ccnc2)N1` [Example 38, 1-(3-((5,5-dimethyl-4,5-dihydro-1H-imidazol-2-yl)thio)propyl)-1H-imidazole dihydrochloride], the IC50 is reported as at least 31 µM.
`CC1(C)CN2C(CSC3=NCC4(CCCCC4)N3)=CSC2=N1` [Example 39, 3-(((1,3-diazaspiro[4.5]dec-2-en-2-yl)thio)methyl)-6,6-dimethyl-5,6-dihydroimidazo[2,1-b]thiazole dihydrochloride] showed an IC50 of 10 to 31 µM.
`CC1(C)CN2C(CSC3=NCC4CCCCC4N3)=CSC2=N1` (centres unmarked) [Example 40, 6,6-dimethyl-3-(((1,4,4a,5,6,7,8,8a-octahydroquinazolin-2-yl)thio)methyl)-5,6-dihydroimidazo[2,1-b]thiazole dihydrochloride] showed an IC50 of at least 31 µM.
Work on `CC1(C)CN=C(SCCc2cccc3ncccc23)N1` [Example 41, 5-(2-((5,5-dimethyl-4,5-dihydro-1H-imidazol-2-yl)thio)ethyl)quinoline dihydrochloride] yielded an IC50 of at least 31 µM.
With `CC1(C)CN=C(SCC2=CSC3=NC4(CCCCC4)CN23)N1` [Example 42, 3′-(((5,5-dimethyl-4,5-dihydro-1H-imidazol-2-yl)thio)methyl)-5′H-spiro[cyclohexane-1,6′-imidazo[2,1-b]thiazole] dihydrochloride] the IC50 was 10 to 31 µM.
Work on `CC1(C)CN=C(SCC2=CSC3=NC4CCCCC4CN23)N1` (centres unmarked) [Example 43, 3-(((5,5-dimethyl-4,5-dihydro-1H-imidazol-2-yl)thio)methyl)-5a,6,7,8,9,9a-hexahydro-5H-thiazolo[2,3-b]quinazoline dihydrochloride] yielded an IC50 of 10 to 31 µM.
`C1=C(CSC2=N[C@@H]3CCCC[C@H]3N2)N2CCN=C2S1` [Example 44, 3-((((3aR,7aR)-3a,4,5,6,7,7a-hexahydro-1H-benzo[d]imidazol-2-yl)thio)methyl)-5,6-dihydroimidazo[2,1-b]thiazole dihydrochloride] showed an IC50 of at most 10 µM.
`C1=C(CSC2=N[C@@H]3CCCC[C@H]3N2)N2CCCN=C2S1` [Example 45, 3-((((3aR,7aR)-3a,4,5,6,7,7a-hexahydro-1H-benzo[d]imidazol-2-yl)thio)methyl)-6,7-dihydro-5H-thiazolo[3,2-a]pyrimidine dihydrochloride] gave an IC50 of at least 31 µM.
Work on `C1=C(CSC2=N[C@@H]3CCCC[C@H]3N2)N2CCCCN=C2S1` [Example 46, 3-((((3aR,7aR)-3a,4,5,6,7,7a-hexahydro-1H-benzo[d]imidazol-2-yl)thio)methyl)-5,6,7,8-tetrahydrothiazolo[3,2-a][1,3]diazepine dihydrochloride] yielded an IC50 of at least 31 µM.
With `CC1(C)CN=C(SCCn2ccnc2)N1` [Example 47, 1-(2-((5,5-dimethyl-4,5-dihydro-1H-imidazol-2-yl)thio)ethyl)-1H-imidazole dihydrochloride] the IC50 was at least 31 µM.
`C1=C(CSC2=NCC(Cc3ccccc3)N2)N2CCCN=C2S1` (centres unmarked) [Example 48, 3-(((5-benzyl-4,5-dihydro-1H-imidazol-2-yl)thio)methyl)-6,7-dihydro-5H-thiazolo[3,2-a]pyrimidine dihydrochloride] gave an IC50 of at most 10 µM.
`CC(C)C1CN=C(SCC2=CSC3=NC(C)(C)CN23)N1` (centres unmarked) [Example 49, 3-(((5-isopropyl-4,5-dihydro-1H-imidazol-2-yl)thio)methyl)-6,6-dimethyl-5,6-dihydroimidazo[2,1-b]thiazole dihydrochloride] showed an IC50 of 10 to 31 µM.
With `CC1(C)CN=C(SCC2=CSC3=NC(c4ccccc4)CN23)N1` (centres unmarked) [Example 50, 3-(((5,5-dimethyl-4,5-dihydro-1H-imidazol-2-yl)thio)methyl)-6-phenyl-5,6-dihydroimidazo[2,1-b]thiazole dihydrochloride] the IC50 was 10 to 31 µM.
Work on `CCCCC1CN=C(SCC2=CSC3=NC(Cc4ccccc4)CN23)N1` (centres unmarked) [Example 51, 6-benzyl-3-(((5-butyl-4,5-dihydro-1H-imidazol-2-yl)thio)methyl)-5,6-dihydroinidazo[2,1-b]thiazole dihydrochloride] yielded an IC50 of at most 10 µM.
In the case of `CC(C)C1CN2C(CSC3=NCC(C)(C)N3)=CSC2=N1` (centres unmarked) [Example 52, 3-(((5,5-dimethyl-4,5-dihydro-1H-imidazol-2-yl)thio)methyl)-6-isopropyl-5,6-dihydroimidazo[2,1-b]thiazole dihydrochloride], the IC50 is reported as 10 to 31 µM.
In the case of `CC1(C)CN2C(CSC3=NCC(c4ccccc4)N3)=CSC2=N1` (centres unmarked) [Example 53, 6,6-dimethyl-3-(((4-phenyl-4,5-dihydro-1H-imidazol-2-yl)thio)methyl)-5,6-dihydroimidazo[2,1-b]thiazole dihydrochloride], the IC50 is reported as at most 10 µM.
In the case of `CN1CCCN=C1SCC1=CSC2=NC(C)(C)CN12` [Example 57, 6,6-dimethyl-3-(((1-methyl-1,4,5,6-tetrahydropyrimidin-2-yl)thio)methyl)-5,6-dihydroimidazo[2,1-b]thiazole dihydrochloride], the IC50 is reported as at least 31 µM.
For `CC(C)[C@@H]1N=C(SCC2=CSC3=NC(C)(C)CN23)N[C@H]1C(C)C` [Example 58, 3-((((4S,5S)-4,5-diisopropyl-4,5-dihydro-1H-imidazol-2-yl)thio)methyl)-6,6-dimethyl-5,6-dihydroimidazo[2,1-b]thiazole dihydrochloride], the IC50 was at least 31 µM.
Work on `C1=C(CSC2=NCC(Cc3ccccc3)N2)N2CC(Cc3ccccc3)N=C2S1` (centres unmarked) [Example 60, 6-benzyl-3-(((5-benzyl-4,5-dihydro-1H-imidazol-2-yl)thio)methyl)-5,6-dihydroimidazo[2,1-b]thiazole dihydrochloride] yielded an IC50 of at most 10 µM.
Work on `C1=C(CSC2=N[C@@H]3CCCC[C@H]3N2)N2CC(Cc3ccccc3)N=C2S1` (stereo partly drawn) [Example 61, 6-benzyl-3-((((3aR,7aR)-3a,4,5,6,7,7a-hexahydro-1H-benzo[d]imidazol-2-yl)thio)methyl)-5,6-dihydroimidazo[2,1-b]thiazole dihydrochloride] yielded an IC50 of at most 10 µM.
In the case of `c1ccc(CC2CN=C(SCCc3cccnc3)N2)cc1` (centres unmarked) [Example 65, 3-(2-((5-benzyl-4,5-dihydro-1H-imidazol-2-yl)thio)ethyl)pyridine dihydrochloride], the IC50 is reported as at least 31 µM.
`CC1(C)CN2C(=N1)SC(I)=C2CSC1=NCC(C)(C)N1` [Example 66, 3-(((5,5-dimethyl-4,5-dihydro-1H-imidazol-2-yl)thio)methyl)-2-iodo-6,6-dimethyl-5,6-dihydroimidazo[2,1-b]thiazole dihydrochloride] gave an IC50 of at most 10 µM.
`c1ccc(CC2CN=C(SCCCc3ccc4c(n3)NCCC4)N2)cc1` (centres unmarked) [Example 68, 7-(3-((5-benzyl-4,5-dihydro-1H-imidazol-2-yl)thio)propyl)-1,2,3,4-tetrahydro-1,8-naphthyridine dihydrochloride] showed an IC50 of 10 to 31 µM.
For `CC1(C)CN2C(=N1)SCC2SC1=NCC(C)(C)N1` (centres unmarked) [Example 70, 3-((5,5-dimethyl-4,5-dihydro-1H-imidazol-2-yl)thio)-6,6-dimethyl-2,3,5,6-tetrahydroimidazo[2,1-b]thiazole dihydrochloride], the IC50 was at least 31 µM.
